According to US7662824B2, “Acylhydrazones as kinase modulators” (Janssen Pharmaceutica NV, priority 2005, dated 2010):
In brackets after ≈: the same amount, converted by molar mass. Counter-ions that a name gives are not always drawn.

Assays:
c-Met [1] = target: T1, c-Met (Homo sapiens, UniProt P08581); assay: Delfia autophosphorylation kinase assay on the c-Met; type: biochemical; parameters: The purified His6 tagged cytoplasmic domain of c-Met was diluted to a concentration of 500 ng/ml; made in house; host or cells: Sf9 insect cells with recombinant baculovirus; Large-scale expression and purification were done by the contract lab Pan Vera; settings: His6 tagged cytoplasmic domain of c-Met, 1 μM ATP; read-out: c-Met Delfia Autophos IC50
Protocol: This example describes the cloning, expression, and purification of the cytoplasmic domain of c-Met which has the c-Met receptor tyrosine kinase activity.
A DELFIA time resolved fluorescence assay was developed for screening of compounds that decreases the autophosphorylation thus the kinase activity of c-Met.
The DELFIA assay is non-radioactive. The autophophorylation of the c-Met is measured by an anti-phosphotyrosine antibody coupled to an Europium tag.
A major advantage of this format is that it allowed for the development of an autophosphorylation assay using Ni-chelate plates which bind the hexa-his tag on the recombinant Met kinase. Autophosphorylation assay allows to use a known substrate, Met kinase itself, for the phosphorylation. The DELFIA Met autophosphorylation assay is very sensitive with a signal to noise ratio in excess of 50:1.
The assay procedure for screening is as follows. The purified His6 tagged cytoplasmic domain of c-Met was diluted to a concentration of 500 ng/ml in enzyme dilution buffer (50 mM Tris-HCl, pH8.0, 0.1% BSA) and dispensed to assay plates at a volume of 50 μl per well. Black opaque HisGrab Nickel coated 96 well plates (Pierce, Rockford, Ill.) were selected to run the assay. Next, 2.5 μl of compound in 40% DMSO was added to test wells, 2.5 μl of 40% DMSO only was added to the negative control wells. The autophosphorylation reaction was initiated upon the addition of 50 μl of reaction buffer, 50 mM Tris-HCl, pH 8.0, 10 mM MgCl2, 0.1 mM Na3VO4, 1 mM DTT, 1 μM ATP. Plates were incubated at room temperature for 1 hour followed by 2 washes with 200 μl/well of PBS. Europium conjugated anti-phosphotyrosine antibody, Eu-PY20 from Perkin Elmer was diluted to 50 ng/ml in Delfia AB buffer (Perkin Elmer, Boston, Mass.), added to the 96 well assay plates at a volume of […], and incubated at room temperature for 2 hours. Assay plates were then washed 4 times each with 200 μl/well of Delfia wash buffer (Perkin Elmer). After the final wash 150 μl of Delfia Enhancement solution (Perkin Elmer) was added to each well of the assay plate and incubated at room temperature for 1 hour. Plates were read on an LJL Analyst instrument (Molecular Devices; Sunnyvale, Calif.) with filter settings of 360 excitation, 620 emission, and 410 dichroic. IC50 values were calculated using Graphpad Prism software (Graphpad Software; San Diego, Calif.).
Target sequence in this assay (P08581 956-1390 limits assumed): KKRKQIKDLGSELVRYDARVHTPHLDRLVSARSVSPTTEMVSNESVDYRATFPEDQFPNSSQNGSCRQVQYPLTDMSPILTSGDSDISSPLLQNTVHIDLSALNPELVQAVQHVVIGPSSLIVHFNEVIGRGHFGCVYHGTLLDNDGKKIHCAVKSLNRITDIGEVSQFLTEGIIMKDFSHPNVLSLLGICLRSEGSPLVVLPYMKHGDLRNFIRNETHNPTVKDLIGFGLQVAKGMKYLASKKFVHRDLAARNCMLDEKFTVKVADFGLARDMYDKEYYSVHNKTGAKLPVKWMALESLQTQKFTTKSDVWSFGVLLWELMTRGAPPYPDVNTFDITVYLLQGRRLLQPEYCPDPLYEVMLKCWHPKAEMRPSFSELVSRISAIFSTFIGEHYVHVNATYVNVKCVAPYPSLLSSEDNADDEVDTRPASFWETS

c-Met [2] = target: T1, c-Met; assay: Fluorescence polarization assay on the kinase activity of c-Met; type: biochemical; parameters: The c-Met kinase domain consists amino acid 1046-1390 of the c-Met protein; made in house; host or cells: Sf9 insect cells with baculovirus; settings: 6H-TEV-cMet, poly Gly4Tyr substrate, 10 μM ATP; read-out: c-Met FP Enz IC50
Source text: A fluorescence polarization assay (FP) was developed for screening of compounds that decreases the kinase activity of c-Met.
A protein (6H-TEV-cMet) comprising c-Met kinase domain was cloned, recombinantly expressed and purified following a procedure similar to that as described in Example A. The protein comprises a His tag consisting of six histidines at its N-terminal, a TEV protease cleavage site, and the c-Met kinase domain. The c-Met kinase domain consists amino acid 1046-1390 of the c-Met protein as listed in GenBank protein accession number P08581.
For the c-Met kinase assay, the 6H-TEV-cMet was used as the enzyme, and a poly Gly4Tyr peptide (Sigma, P-0275) was used as the substrate. The kinase reaction was performed in a volume of 10 μl in HE microplates (LJL Biosystems). Assay conditions were as follows: 100 mM HEPES pH 7.5, 0.01% Tween-20, 1 mM DTT, 5 mM MgCl2, 10 μM ATP, 10 μg/ml poly Gly4Tyr. The kinase reaction was initiated upon addition of 10 nM 6H-TEV-cMet. After a 12 minute incubation at room temperature the reaction was terminated with […] 50 mM EDTA.
Phosphorylation of the peptide substrate was detected with PanVera Tyrosine Kinase Assay Kit, Green reagents (P2837). Five minutes after the addition of EDTA, 10 μl of antibody/tracer mix (Pan Vera reagents, 1:1:3 dilution of antibody: Tracer: FP dilution buffer, Cat. # P2837) was added to each well. Plates were allowed to incubate for 30 minutes at room temperature and fluorescence polarization was measured with an LJL Analyst instrument (Molecular Devices; Sunnyvale, Calif.) with excitation=485 nm filter and emission=530 nm filter. IC50 values were calculated from triplicate sets of data using Graphpad Prism software (Graphpad Software; San Diego, Calif.).
Target sequence in this assay (P08581 1046-1390): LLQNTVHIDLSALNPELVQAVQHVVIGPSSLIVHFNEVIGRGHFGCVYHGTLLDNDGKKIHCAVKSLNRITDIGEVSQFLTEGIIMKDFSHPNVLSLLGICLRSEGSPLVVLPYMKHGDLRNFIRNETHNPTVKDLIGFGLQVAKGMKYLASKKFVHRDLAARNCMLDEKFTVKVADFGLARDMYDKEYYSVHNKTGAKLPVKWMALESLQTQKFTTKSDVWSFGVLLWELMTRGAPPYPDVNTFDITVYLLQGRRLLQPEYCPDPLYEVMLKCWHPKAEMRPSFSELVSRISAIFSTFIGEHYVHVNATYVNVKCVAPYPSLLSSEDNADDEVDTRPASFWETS

Aqueous solubility assay = settings: water with 0.4% DMSO, kinetic from dmso stock
Protocol: Water, PBS and aqueous HCl at pH2 having a final DMSO content of 0.4%, with the final DMSO concentration reaching 40 μM. Samples were placed in the incubator and shaken for 15 minutes.

Row | Compound | IC50 (c-Met [1]) [nM] | IC50 (c-Met [2]) [nM] | solubility at 15 min (Aqueous solubility assay) [µM]
1 | O=C(Cc1ccc2c(c1)CCO2)N/N=C1\C(=O)Nc2cc(C(=O)NCCN3CCOCC3)cc(Br)c21 [Example 6, 4-Bromo-3-[(2-2,3-dihydro-benzofuran-5-yl-acetyl)-hydrazono]-2-oxo-2,3-dihydro-1H-indole-6-carboxylic acid (2-morpholin-4-yl-ethyl)-amide] | 5 | 5 | 44 (≈ 24.5 µg/mL)
2 | CN1CCN(C(=O)c2cc(Br)c3c(c2)NC(=O)/C3=N\NC(=O)Cc2ccc3c(c2)CCO3)CC1 [Example 2, (2,3-Dihydro-benzofuran-5-yl)-aceticacid[4-bromo-6-(4-methyl-piperazine-1-carbonyl)-2-oxo-1,2-dihydro-indol-3-ylidene]-hydrazide] | 10 | – | 43.9 (≈ 23.1 µg/mL)
3 | O=C(Cc1ccc2c(c1)CCO2)N/N=C1/C(=O)Nc2cc(C(=O)NCCCN3CCC[C@H]3CO)cc(Br)c21 [Example 1, (S)-4-Bromo-3-[(2-2,3-dihydro-benzofuran-5-yl-acetyl)-hydrazono]-2-oxo-2,3-dihydro-1H-indole-6-carboxylic acid [3-(2-hydroxymethyl-pyrrolidin-1-yl)-propyl]-amide] | 6 | – | –
4 | CN1CCN(C(=O)c2cc(Br)c3c(c2)NC(=O)/C3=N\NC(=O)Cc2ccc3sccc3c2)CC1 [Example 18, Benzothiophen-5-yl-acetic acid [4-bromo-6-(4-methyl-piperazine-1-carbonyl)-2-oxo-1,2-dihydro-indol-3-ylidene]-hydrazide hydrochloride] | 4700 | – | –
5 | O=C(Cc1ccc2c(c1)CCO2)N/N=C1\C(=O)Nc2cc(C(=O)NCCCN3CCC(O)CC3)cc(Br)c21 [Example 12, 4-Bromo-3-[(2-2,3-dihydro-benzofuran-5-yl-acetyl)-hydrazono]-2-oxo-2,3-dihydro-1H-indole-6-carboxylic acid [3-(4-hydroxy-piperidin-1-yl)-propyl]-amide] | 2 | – | –
6 | O=C(Cc1ccc2c(c1)CCO2)N/N=C1\C(=O)Nc2cc(C(=O)NCCCO)cc(Br)c21 [Example 15, 4-Bromo-3-[(2-2,3-dihydro-benzofuran-5-yl-acetyl)-hydrazono]-2-oxo-2,3-dihydro-1H-indole-6-carboxylic acid (3-hydroxy-propyl)-amide] | 1 | – | –
7 | O=C(Cc1ccc2c(c1)CCO2)N/N=C1\C(=O)Nc2cc(C(=O)NCCCN3CCC[C@@H]3CO)cc(Br)c21 [Example 11, (R)-4-Bromo-3-[(2-2,3-dihydro-benzofuran-5-yl-acetyl)-hydrazono]-2-oxo-2,3-dihydro-1H-indole-6-carboxylic acid [3-(2-hydroxymethyl-pyrrolidin-1-yl)-propyl]-amide] | 0.5 | – | –
8 | 4-Bromo-3-[(2-2,3-dihydro-benzofuran-5-yl-acetyl)-hydrazono]-2-oxo-2,3-dihydro-1H-indole-6-carboxylic acid (3-morpholin-4-yl-propyl)-amide [Example 7] | 0.7 | 1 | –
9 | O=C(Cc1ccc2c(c1)CCO2)N/N=C1\C(=O)Nc2cc(C(=O)NCCCN3CC[C@H](O)C3)cc(Br)c21 [Example 13, (S)-4-Bromo-3-[(2-2,3-dihydro-benzofuran-5-yl-acetyl)-hydrazono]-2-oxo-2,3-dihydro-1H-indole-6-carboxylic acid [3-(3-hydroxy-pyrrolidin-1-yl)-propyl]-amide] | 1 | – | –
10 | CN(C)CCCNC(=O)c1cc(Br)c2c(c1)NC(=O)/C2=N\NC(=O)Cc1ccc2occc2c1 [Example 14, 3-[(2-Benzofuran-5-yl-acetyl)-hydrazono]-4-bromo-2-oxo-2,3-dihydro-1H-indole-6-carboxylic acid (3-dimethylamino-propyl)-amide] | 1.6 | – | –

More lines, now with the values ahead:

Row | IC50 (c-Met [1]) [nM] | IC50 (c-Met [2]) [nM] | solubility at 15 min (Aqueous solubility assay) [µM] | Compound
11 | 656 | – | – | CN1CCN(C(=O)c2cc(Br)c3c(c2)NC(=O)/C3=N\NC(=O)Cc2ccc3ocnc3c2)CC1 [Example 17, Benzooxazol-5-yl-acetic acid [4-bromo-6-(4-methyl-piperazine-1-carbonyl)-2-oxo-1,2-dihydro-indol-3-ylidene]-hydrazide]
12 | 65 | – | – | CN1CCN(C(=O)c2cc(Br)c3c(c2)NC(=O)/C3=N\NC(=O)Cc2ccc3occc3c2)CC1 [Example 16, Benzofuran-5-yl-acetic acid [4-bromo-6-(4-methyl-piperazine-1-carbonyl)-2-oxo-1,2-dihydro-indol-3-ylidene]-hydrazide hydrochloride]
13 | 5 | – | – | CN(C)CCCNC(=O)c1cc(Br)c2c(c1)NC(=O)/C2=N\NC(=O)Cc1ccc2c(c1)CCO2 [Example 9, 4-Bromo-3-[(2-2,3-dihydro-benzofuran-5-yl-acetyl)-hydrazono]-2-oxo-2,3-dihydro-1H-indole-6-carboxylic acid (3-dimethylamino-propyl)-amide]
14 | 1 | 10 | 41.1 (≈ 21.1 µg/mL) | CN(C)CCNC(=O)c1cc(Br)c2c(c1)NC(=O)/C2=N\NC(=O)Cc1ccc2c(c1)CCO2 [Example 8, 4-Bromo-3-[(2-2,3-dihydro-benzofuran-5-yl-acetyl)-hydrazono]-2-oxo-2,3-dihydro-1H-indole-6-carboxylic acid (2-dimethylamino-ethyl)-amide]
15 | 1 | 13 | 38.8 (≈ 22.6 µg/mL) | CN1CCN(CCCNC(=O)c2cc(Br)c3c(c2)NC(=O)/C3=N\NC(=O)Cc2ccc3c(c2)CCO3)CC1 [Example 5, 4-Bromo-3-[(2-2,3-dihydro-benzofuran-5-yl-acetyl)-hydrazono]-2-oxo-2,3-dihydro-1H-indole-6-carboxylic acid [3-(4-methyl-piperazin-1-yl)-propyl]-amide]
16 | 28 | – | 37.9 (≈ 19.1 µg/mL) | CN1CCN(CCCNC(=O)c2ccc3c(c2)NC(=O)/C3=N\NC(=O)Cc2ccc3c(c2)CCO3)CC1 [Example 4, 3-[(2-2,3-Dihydro-benzofuran-5-yl-acetyl)-hydrazono]-2-oxo-2,3-dihydro-1H-indole-6-carboxylic acid [3-(4-methyl-piperazin-1-yl)-propyl]-amide]
17 | 158 | – | – | CN1CCN(C(=O)c2cc(Br)c3c(c2)NC(=O)/C3=N\NC(=O)Cc2ccc3onc(N)c3c2)CC1 [Example 19, (3-Amino-benzo[d]isoxazol-5-yl)-acetic acid [4-bromo-6-(4-methyl-piperazine-1-carbonyl)-2-oxo-1,2-dihydro-indol-3-ylidene]-hydrazide]
18 | 0.7 | – | – | O=C(Cc1ccc2c(c1)CCO2)N/N=C1\C(=O)Nc2cc(C(=O)NCCCN3CC[C@@H](O)C3)cc(Br)c21 [Example 10, (R)-4-Bromo-3-[(2-2,3-dihydro-benzofuran-5-yl-acetyl)-hydrazono]-2-oxo-2,3-dihydro-1H-indole-6-carboxylic acid [3-(3-hydroxy-pyrrolidin-1-yl)-propyl]-amide]
